Laboratory results: US5717094A, “Process and intermediates for preparing compounds having a disubstituted acetylene moiety and retinoic acid-like biological activity” (Allergan, priority 1991, dated 1998)

How the values were obtained:
[1] = tested on: ornithine decarboxylase (ODC), TPA induced; test: Inhibition of TPA-induced ornithine decarboxylase (ODC) activity, essentially the method of Verma & Boutwell; assay type: biochemical; settings: concentration attaining 80% inhibition of TPA induced ODC activity
Source text: The retionic acid like activity of these compounds was confirmed through the classic measure of retionic acid activity involving the effects of retionic acid on ornithine decarboxylase. The original work on the correlation between retionic acid and decrease in cell proliferation was done by Verma & Boutwell, Cancer Research, 1977, 37, 2196-2201. That reference discloses that ornithine decarboxylase (ODC) activity increased precedent to polyamine biosynthesis. It has been established elsewhere that increases in polyamine synthesis can be correlated or associated with cellular proliferation. Thus, if ODC activity could be inhibited, cell hyperproliferation could be modulated. Although all causes for ODC activity increase are unknown, it is known that 12-0-tetradecanoylphorbol-13-acetate (TPA) induces ODC activity.
By way of example of retionic acid-like activity it is noted that in the assay conducted essentially in accordance with the method of Verman & Boutwell, ibid, the following examples of compounds made in accordance with the process of the present invention (Compounds 10, 11 and 12) attained an 80% inhibition of TPA induced ODC activity at the following concentrations (IC80): […]

[2] = tested on: ornithine decarboxylase (ODC), TPA induced; settings: background statement on retinoic acid; Verma & Boutwell, Cancer Research, 1977, 37, 2196-2201; cited from earlier work

Row | Compound | IC80 conc [1] [mmols] | inhibition of induction of ODC activity by TPA [2]
1 | CCOC(=O)c1ccc(C#Cc2cc3c(cc2C)OC(C)(C)CC3(C)C)nc1 [Compound 12, Ethyl-6-[(2,2,4,4,7-pentamethyl-6-chromanyl)-ethynyl nicotinate] | 0.2 | 
2 | CCOC(=O)c1ccc(C#Cc2ccc3c(c2)C(C)(C)CC(C)(C)S3)nc1 [Compound 10] | 0.69 | 
3 | CCOC(=O)c1ccc(C#Cc2ccc3c(c2)C(C)(C)CC(C)(C)O3)nc1 [Compound 11] | 0.13 | 
4 | CC1=C(/C=C/C(C)=C/C=C/C(C)=C/C(=O)O)C(C)(C)CCC1 [Retionic acid, retionic acid] |  | inhibits this induction of ODC activity by TPA
